Data as given in US20210254000A1, “PROCESS FOR PRODUCING A T CELL COMPOSITION” (Juno Therapeutics, Inc., priority 2017, published 2021).
Read-outs that look alike come from different tables or passages of the source.

Columns and labels:
anti-CD19 CAR-T cells = assay: CAR-specific expansion with anti-idiotype antibody conjugated beads; assay type: cell-based, human; settings: anti-idiotype beads 1:1, 15 days; relative to media only
Description: Separate compositions of CD4+ and CD8+ cells were isolated from three human donors, activated and transduced with a viral vector encoding an anti-CD19 CAR substantially as described in Example 2. After transduction, the CD4+ and CD8+ T cells derived from each donor were separately incubated for 8 days in the presence of a mTOR kinase inhibitor to expand T cells substantially as described in Example 2, except in the presence of 200 nM PI-103, 1 μM Compound 63, or with DMSO vehicle or media only controls. CD4+ and CD8+ T cells from each donor were then separately harvested, formulated, and cryofrozen. […] Functional activities of the generated anti-CD19 CAR-T cell compositions were assessed.
The ability of the cells to expand following stimulation of the CAR was assessed by incubating cells of the generated anti-CD19 CAR-T cell compositions with beads surface conjugated with an anti-idiotype antibody specific to the anti-CD19 CAR. […] The total live T cells per well was determined by counting cells in the cultures every 5 days (FIG. 8A). The mean area under the curve (AUC) as a function of T cell number over time was calculated relative to the AUC of cells expanded with media only (FIG. 8B).

[1] = test system: CD19-expressing target cells; assay: Cytolytic activity of CAR-T cells (mixed CD4+/CD8+ process); assay type: cell-based, human; settings: CAR-T cells prepared with 2 μM PI103 or 1 μM Compound 63; freshly thawed or day 14; 3:1 effector to target
Description: (§1) Separate compositions of CD4+ and CD8+ cells were selected from isolated PBMCs from a leukapheresis sample from the same human donor by immunoaffinity based selection, and the selected cell compositions were cryofrozen. The separate compositions of CD4+ and CD8+ T cells were subsequently thawed and mixed at a ratio of 1:1 of viable CD4+ T cells to viable CD8+ T cells. In this study, the mixed CD4+ and CD8+ cell populations were incubated in the presence of Compound 63, PI103 or no inhibitor (DMSO vehicle control) beginning at the initiation of stimulation. In more detail, the mixed CD4+ and CD8+ T cell composition was stimulated (in the presence or absence of an inhibitor, as indicated) in the presence of paramagnetic polystyrene-coated beads with attached anti-CD3 and anti-CD28 antibodies for between 18 to 30 hours, and were then transduced with a lentiviral vector encoding an anti-CD19 CAR. […]
Cytolytic activity of the generated CAR-T cells was assessed by culturing the generated CAR-T cells, either freshly thawed or at day 14 of restimulation from above, with CD19-expressing target cells at a 3:1 effector to target ratio. Target cell death was quantitated over time. The tumor cell growth area under the curve (AUC) of signal over time for each concentration was determined. A killing index was calculated as the inverse of the area under the tumor cell growth curve (1/AUC).

[2] = test system: anti-CD19 CAR-T cells stimulated with irradiated K562-CD19 target cells; assay: Secondary cytokine response after anti-idiotype bead expansion; assay type: cell-based, human; settings: for secondary cytokine production following subsequent stimulation with antigen: cells harvested at day 11 after anti-idiotype bead expansion, K562-CD19 1:1, approximately 16 hours
caspase 3 = assay: Intracellular caspase 3 in thawed CAR-T cells prepared with inhibitor; assay type: cell-based, human; settings: thawed CAR-T cells prepared with 1 μM Compound 63 vs DMSO; three donors
Description: as §1, with “CAR. The CAR contained an scFv antigen-binding domain specific for CD19 (derived from FMC63), a CD28 transmembrane region, a 4-1BB costimulatory signaling region, and a CD3-zeta derived intracellular signaling domain. The cells were then expanded in the presence of cytokines typically for approximately 6-7 days.” for “CAR.”
The cells were assessed by flow cytometry for levels of the cell surface markers and levels of pro-apoptotic marker, intracellular caspase 3.

Raji cells = assay: Raji tumor xenograft model, CAR-T cells expanded with inhibitor; assay type: in vivo, nod scid gamma (NSG) immunodeficient mice; settings: for tumor burden (bioluminescence) compared with DMSO vehicle: low (0.25×10^6) or high (1.0×10^6) dose of CAR+ T cells expanded with the inhibitor; for survival compared to mice administered CAR-T cells expanded with DMSO vehicle: low or high dose of CAR-T cells expanded with the inhibitor
Description: Anti-tumor effects of the generated anti-CD19 CAR-T cell compositions, generated by expansion in the presence of PI-103, Compound 63 or media only as described in Example 2, was assessed. The tumor xenograft mouse model was generated by implanting nod scid gamma (NSG) immunodeficient mice with 0.5×10^6 Raji cells (an immortalized human B lymphocyte tumor cell line that expresses CD19), which were allowed to engraft. The Raji cells were transfected with firefly luciferase to facilitate detection by bioluminescence imaging. After seven days, mice either received no treatment, DMSO vehicle, or a low dose (0.25×10^6) or a high dose (1.0×10^6) dose of CAR+ T cells of the generated anti-CD19 CAR-T cell compositions. Tumor burden was assessed by bioluminescence weekly or every 10 days.

Ribo-S6 phosphorylation = assay: Inhibition of ribosomal protein S6 phosphorylation in stimulated primary human T cells (flow cytometry); assay type: cell-based
Description: The dose effect of exemplary mTOR kinase inhibitors in primary human T cells was assessed by monitoring inhibition of ribosomal protein S6.
CD4+ and CD8+ T cells were isolated by immunoaffinity-based enrichment from leukapheresis samples from human donor subjects. Isolated CD4+ and CD8+ T cells were mixed 1:1 and stimulated with anti-CD3/anti-CD28 magnetic beads in the presence of increasing concentrations of an mTOR kinase inhibitor, PI-103, Compound 155, Compound 63, or Compound 246. The T cell cultures were incubated overnight (approximately 16 hr) at 37° C. Following incubation in the presence of PI-103, Compound 155, Compound 63, or Compound 246, T cells were assessed for intracellular S6 phosphorylation and co-stained for surface expression of CD4 or CD8, by flow cytometry.

CAR-T cells = assay: Expansion of CAR-T cells on CAR-specific beads for 14 days (mixed CD4+/CD8+ process); assay type: cell-based, human; settings: CAR-T cells prepared with 2 μM PI103 or 1 μM Compound 63
Description: as §1, with “CAR. The CAR contained an scFv antigen-binding domain specific for CD19 (derived from FMC63), a CD28 transmembrane region, a 4-1BB costimulatory signaling region, and a CD3-zeta derived intracellular signaling domain.” for “CAR.”
Functional attributes of the generated CAR-T cells were assessed in a serial stimulation assay by incubation of the generated CAR-T cells antibody conjugated to beads. […] Every 3-4 days, T cells were, counted.

[3] = Homo sapiens, T-cell, CD8+ T cells, read-out: IC50 for inhibition of Ribo-S6 phosphorylation, CD8
[4] = Homo sapiens, CD4+ T cells, read-out: IC50 for inhibition of Ribo-S6 phosphorylation, CD4
[5] = T-cell, primary human CD4+/CD8+ T cells mixed 1:1, anti-CD3/anti-CD28 beads, approximately 16 hr, read-out: IC50 for the inhibition of S6 phosphorylation in the T cells

CC(C)c1ccccc1-n1c(=O)[nH]c2c(C(N)=O)nc(-c3cccc(O)c3)nc21 [Compound 63, 2-(3-Hydroxyphenyl)-9-(2-isopropylphenyl)-8-oxo-8,9-dihydro-7H-purine-6-carboxamide]
mean AUC of live T cell number over time compared to DMSO vehicle (anti-CD19 CAR-T cells): larger mean AUC
target cell killing (killing index 1/AUC) compared to CAR-T cells prepared with DMSO [1]: improved target cell killing
secondary cytokine production following subsequent stimulation with antigen [2]: improved secondary cytokine production
frequency of CD8+ T cells that were CD107a+IFNγ+ ([2]; some donor-derived cells, day 11, Golgi Inhibitor 4 hours): increased frequency of CD8+ T cells that were CD107a+IFNγ+ cells
levels of pro-apoptotic marker intracellular caspase 3 (caspase 3): decreased levels
survival (Raji cells; high dose of CAR-T cells expanded with the inhibitor, for at least 80 days following tumor cell implant): 100%
tumor burden (bioluminescence) compared with DMSO vehicle (Raji cells): Reduced tumor burden
survival compared to mice administered CAR-T cells expanded with DMSO vehicle (Raji cells): substantially improved survival
IC50 (Ribo-S6 phosphorylation; [3]): 503 nM
IC50 (Ribo-S6 phosphorylation; [4]): 468 nM
IC50 (Ribo-S6 phosphorylation; [5]): ~500 nM
expansion after restimulation with CAR-specific beads (CAR-T cells): improved expansion after restimulation

Oc1cccc(-c2nc(N3CCOCC3)c3oc4ncccc4c3n2)c1 [PI-103, reference compound]
mean AUC of live T cell number over time compared to DMSO vehicle (anti-CD19 CAR-T cells): larger mean AUC
target cell killing (killing index 1/AUC) compared to CAR-T cells prepared with DMSO [1]: improved target cell killing
secondary cytokine production following subsequent stimulation with antigen [2]: improved secondary cytokine production
tumor burden (bioluminescence) compared with DMSO vehicle (Raji cells): Reduced tumor burden
survival compared to mice administered CAR-T cells expanded with DMSO vehicle (Raji cells): substantially improved survival
IC50 (Ribo-S6 phosphorylation; [3]): 88.4 nM
IC50 (Ribo-S6 phosphorylation; [4]): 121 nM
IC50 (Ribo-S6 phosphorylation; [5]): ~100 nM
expansion after restimulation with CAR-specific beads (CAR-T cells): improved expansion after restimulation
